Our source for the IC50 values is US10329302B2, “Bicyclic-fused heteroaryl or aryl compounds” (Pfizer Inc., priority 2014, dated 2019).

Where two headings read alike, the source gives them in different places.

Assay [1] concerns the target human IRAK4 FL (Full Length) (Homo sapiens (Human), UniProt Q9NWZ3). The assay is described as follows: IRAK4 Enzymatic DELFIA Assay, Protocol A. It counts as biochemical.
In assay [2] the test system is R848-induced TNFα production by human peripheral blood mononuclear cells (PBMCs). Briefly: R848 Induced TNFα in Human PBMC Assay. The assay is classed as cell-based.
The mark [3] stands for this setting: human IRAK4 FL, 0.6 mM ATP (KM), read-out: IRAK4 DELFIA Protocol A IC50.
Setting [4] is: Homo sapiens, PBMC, 3 h, read-out: R848-induced TNFa PBMC IC50 (nM).
Setting [5] is: human PBMC, absence of serum, 3 hours, read-out: R848-induced TNFa PBMC IC50.

Sequence of human IRAK4 FL (Full Length) (Q9NWZ3 whole entry): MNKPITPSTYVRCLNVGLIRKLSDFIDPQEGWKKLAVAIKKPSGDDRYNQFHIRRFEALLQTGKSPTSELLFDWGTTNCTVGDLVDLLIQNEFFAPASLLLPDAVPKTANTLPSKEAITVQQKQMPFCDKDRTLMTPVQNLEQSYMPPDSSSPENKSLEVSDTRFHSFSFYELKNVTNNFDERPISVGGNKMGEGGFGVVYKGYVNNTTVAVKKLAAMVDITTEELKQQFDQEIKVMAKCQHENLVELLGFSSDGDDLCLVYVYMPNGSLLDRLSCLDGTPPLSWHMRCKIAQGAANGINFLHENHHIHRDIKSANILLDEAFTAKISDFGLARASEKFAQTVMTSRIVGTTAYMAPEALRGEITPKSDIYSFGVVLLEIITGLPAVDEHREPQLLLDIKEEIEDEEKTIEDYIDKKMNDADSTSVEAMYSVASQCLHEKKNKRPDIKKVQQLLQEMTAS

What is called IC50 is the concentration at which inhibition is half-maximal. On to `COc1cc2c(OC[C@@H]3CC(Cc4ccccc4)C(=O)N3)nccc2cc1C(N)=O` (stereo partly drawn) [Example 258, 1-{[(2S)-4-benzyl-5-oxopyrrolidin-2-yl]methoxy}-7-methoxyisoquinoline-6-carboxamide], for which the figures for the half-maximal inhibitory concentration (IC50) in assay [1] (setting [3]) and in assay [2] (setting [4]) were 141 nM and 2930 nM, respectively.
In the same order, the values of `CC[C@]1(F)C[C@@H](COc2ccnc3cc(C(N)=O)c(OC)cc23)NC1=O` [Example 259, 4-{[(2S,4S)-4-ethyl-4-fluoro-5-oxopyrrolidin-2-yl]methoxy}-6-methoxyquinoline-7-carboxamide] are 3.1 nM and 120 nM.
`CC[C@@]1(F)C[C@@H](COc2ccnc3cc(C(N)=O)c(OC)cc23)NC1=O` [Example 260, 4-{[(2S,4R)-4-ethyl-4-fluoro-5-oxopyrrolidin-2-yl]methoxy}-6-methoxyquinoline-7-carboxamide]: the IC50 came to 202 nM in assay [1] (setting [3]) and 6280 nM in assay [2] (setting [4]).
In the same order, the values of `COc1cc2c(OC[C@H]3NC(=O)[C@H]4[C@@H]3C4(C)C)nccc2cc1C(N)=O` [Example 263, 1-{[(1R,2S,5S)-6,6-dimethyl-4-oxo-3-azabicyclo[3.1.0]hex-2-yl]methoxy}-7-methoxyisoquinoline-6-carboxamide] are 80 nM and 496 nM.
In the same order, the values of `COc1cc2c(OCC3(C)COC(=O)N3)nccc2cc1C(N)=O` (stereo not shown) [Example 266, 7-methoxy-1-[(4-methyl-2-oxo-1,3-oxazolidin-4-yl)methoxy]isoquinoline-6-carboxamide] are 74 nM and 394 nM.
On the same counts, the results for `COc1cc2c(OC[C@@H]3C[C@@H](CC(F)(F)F)C(=O)N3)nccc2cc1C(N)=O` [Example 267, 7-methoxy-1-{[(2S,4S)-5-oxo-4-(2,2,2-trifluoroethyl)pyrrolidin-2-yl]methoxy}isoquinoline-6-carboxamide] are 15 nM and 158 nM.
In the case of `COc1cc2c(OC[C@@H]3C[C@](C)(F)C(=O)N3)ccnc2cc1C(N)=O` [Example 268, 4-{[(2S,4S)-4-fluoro-4-methyl-5-oxopyrrolidin-2-yl]methoxy}-6-methoxyquinoline-7-carboxamide], the figures for the half-inhibitory concentration (IC50) in assay [1] (setting [3]) and in assay [2] (setting [4]) were 1.4 nM and 175 nM, respectively.
In the same order, the values of `CC(C)Oc1cc2c(OC[C@@H]3C[C@](C)(F)C(=O)N3)ccnc2cc1C(N)=O` [Example 269, 4-{[(2S,4S)-4-fluoro-4-methyl-5-oxopyrrolidin-2-yl]methoxy}-6-(propan-2-yloxy)quinoline-7-carboxamide] are 0.6 nM and 104 nM.
Turning to `COc1cc2c(OC[C@H]3NC(=O)[C@@H](F)[C@H]3C)nccc2cc1C#N` [Example 272, 1-{[(2S,3S,4S)-4-fluoro-3-methyl-5-oxopyrrolidin-2-yl]methoxy}-7-methoxyisoquinoline-6-carbonitrile], the half-maximal inhibitory concentration (IC50) is 432 nM in assay [1] (setting [3]) and 2470 nM in assay [2] (setting [4]).
In the case of `COc1cc2c(OC[C@@H]3C[C@@](F)(CCF)C(=O)N3)ccnc2cc1C(N)=O` [Example 274, 4-{[(2S,4R)-4-fluoro-4-(2-fluoroethyl)-5-oxopyrrolidin-2-yl]methoxy}-6-methoxyquinoline-7-carboxamide], the half-inhibitory concentration (IC50) is 2.2 nM in assay [1] (setting [3]) and 748 nM in assay [2] (setting [4]).
On the same counts, the results for `COc1cc2c(OC[C@H]3C[C@@H](F)C(=O)N3)nccc2cc1C(N)=O` [Example 275, 1-{[(2R,4R)-4-fluoro-5-oxopyrrolidin-2-yl]methoxy}-7-methoxyisoquinoline-6-carboxamide] are 119 nM and 5140 nM.
In the same order, the values of `COc1cc2c(OC[C@@H]3C[C@@](F)(CCF)C(=O)N3)nccc2cc1C(N)=O` [Example 276, 1-{[(2S,4R)-4-fluoro-4-(2-fluoroethyl)-5-oxopyrrolidin-2-yl]methoxy}-7-methoxyisoquinoline-6-carboxamide] are 4.1 nM and 107 nM.
Take `CCOc1cc2c(OC[C@@H]3C[C@](C)(F)C(=O)N3)nccc2cc1C(N)=O` [Example 278, 7-ethoxy-1-{[(2S,4S)-4-fluoro-4-methyl-5-oxopyrrolidin-2-yl]methoxy}isoquinoline-6-carboxamide]: the 50% inhibitory concentration (IC50) in assay [1] (setting [3]) was 8.5 nM; in assay [2] (setting [4]), 299 nM.
For the compound `CCOc1cc2c(OC[C@H]3NC(=O)[C@@H](F)[C@H]3C)ccnc2cc1C(N)=O` [Example 279, 6-ethoxy-4-{[(2S,3S,4S)-4-fluoro-3-methyl-5-oxopyrrolidin-2-yl]methoxy}quinoline-7-carboxamide], the IC50 was 1.2 nM in assay [1] (setting [3]) and 212 nM in assay [2] (setting [4]).
Turning to `C[C@@H]1[C@H](F)C(=O)N[C@@H]1COc1nccc2cc(C(N)=O)c(OC3CC3)cc12` [Example 281, 7-(cyclopropyloxy)-1-{[(2S,3S,4S)-4-fluoro-3-methyl-5-oxopyrrolidin-2-yl]methoxy}isoquinoline-6-carboxamide], the concentration for half-maximal inhibition (IC50) turned out to be 11 nM in assay [1] (setting [3]) and 127 nM in assay [2] (setting [5]).
Take `CCOc1cc2c(OC[C@H]3NC(=O)[C@@H]4C[C@H]34)nccc2cc1C(N)=O` [Example 282, 7-ethoxy-1-{[(1S,2S,5R)-4-oxo-3-azabicyclo[3.1.0]hex-2-yl]methoxy}isoquinoline-6-carboxamide]: the half-inhibitory concentration (IC50) in assay [1] (setting [3]) was determined as 11 nM; in assay [2] (setting [4]) it was 191 nM.
Consider `COc1cc2c(OC[C@H]3NC(=O)[C@H]4[C@@H]3C4(Cl)Cl)nccc2cc1C(N)=O` [Example 311, 1-{[(1S,2S,5R)-6,6-dichloro-4-oxo-3-azabicyclo[3.1.0]hex-2-yl]methoxy}-7-methoxyisoquinoline-6-carboxamide], for which the half-maximal inhibitory concentration (IC50) in assay [1] (setting [3]) is 229 nM; in assay [2] (setting [4]) it was 1080 nM.
On the same counts, the results for `CCC[C@@H]1CC(=O)N[C@@H]1COc1nccc2cc(C(N)=O)c(OC)cc12` [Example 312, 7-methoxy-1-{[(2S,3R)-5-oxo-3-propylpyrrolidin-2-yl]methoxy}isoquinoline-6-carboxamide] are 1.3 nM and 26 nM.
On the same counts, the results for `COC[C@@H]1[C@H]2C(=O)N[C@H](COc3nccc4cc(C(N)=O)c(OC)cc34)[C@@H]12` [Example 313, 7-methoxy-1-{[(1S,2S,5S)-6-(methoxymethyl)-4-oxo-3-azabicyclo[3.1.0]hex-2-yl]methoxy}isoquinoline-6-carboxamide] are 210 nM and 1590 nM.
On the same counts, the results for `COC[C@H]1[C@H]2C(=O)N[C@H](COc3nccc4cc(C(N)=O)c(OC)cc34)[C@@H]12` [Example 314, 7-methoxy-1-{[(1S,2S,5S)-6-(methoxymethyl)-4-oxo-3-azabicyclo[3.1.0]hex-2-yl]methoxy}isoquinoline-6-carboxamide] are 1980 nM and 8360 nM.
For the compound `COc1cc2c(OC[C@H]3NC(=O)[C@@H]4[C@@H](F)[C@@H]43)nccc2cc1C(N)=O` [Example 315, 1-{[(1S,2S,5R)-6-fluoro-4-oxo-3-azabicyclo[3.1.0]hex-2-yl]methoxy}-7-methoxyisoquinoline-6-carboxamide], the figures for the IC50 in assay [1] (setting [3]) and in assay [2] (setting [4]) were 1.5 nM and 45 nM, respectively.
On the same counts, the results for `CC[C@@H]1[C@H](F)C(=O)N[C@@H]1COc1ccnc2cc(C(N)=O)c(OC)cc12` [Example 316, 4-{[(2S,3S,4S)-3-ethyl-4-fluoro-5-oxopyrrolidin-2-yl]methoxy}-6-methoxyquinoline-7-carboxamide] are 129 nM and 464 nM.
`COc1cc2c(OC[C@H]3NC(=O)[C@]4(F)C[C@H]34)nccc2cc1C(N)=O` [Example 317, 1-{[(1R,2S,5S)-5-fluoro-4-oxo-3-azabicyclo[3.1.0]hex-2-yl]methoxy}-7-methoxyisoquinoline-6-carboxamide]: the half-inhibitory concentration (IC50) in assay [1] came out at 0.6 nM; in assay [2] (setting [5]), 22 nM.
`C#CCOc1cc2c(OC[C@@H]3CCC(=O)N3)nccc2cc1C(N)=O` [Example 318, 1-{[(2S)-5-oxopyrrolidin-2-yl]methoxy}-7-(prop-2-yn-1-yloxy)isoquinoline-6-carboxamide]: the results for the IC50 in assay [1] (setting [3]) and in assay [2] (setting [4]) were 1940 nM and 17200 nM, respectively.
In the case of `C=C=COc1cc2c(OC[C@@H]3CCC(=O)N3)nccc2cc1C(N)=O` [Example 319, 1-{[(2S)-5-oxopyrrolidin-2-yl]methoxy}-7-(propadienyloxy)isoquinoline-6-carboxamide], the IC50 in assay [1] (setting [3]) was found to be 1950 nM; in assay [2] (setting [4]) it was 11000 nM.
On the same counts, the results for `COc1cc2c(OC[C@H]3NC(=O)[C@@H]4[C@@H](C(F)F)[C@@H]43)nccc2cc1C(N)=O` [Example 320, 1-{[(1R,2S,5S)-6-(difluoromethyl)-4-oxo-3-azabicyclo[3.1.0]hex-2-yl]methoxy}-7-methoxyisoquinoline-6-carboxamide] are 0.8 nM and 11 nM.
On to `COc1cc2c(OC[C@H]3NC(=O)[C@]4(F)CC[C@H]34)nccc2cc1C(N)=O` [Example 322, 1-{[(1R,2S,5S)-5-fluoro-4-oxo-3-azabicyclo[3.2.0]hept-2-yl]methoxy}-7-methoxyisoquinoline-6-carboxamide], for which the results for the IC50 in assay [1] (setting [3]) and in assay [2] (setting [4]) were 6.1 nM and 26 nM, respectively.
For `COc1cc2c(OC[C@H]3NC(=O)[C@@]4(F)[C@@H]3[C@@H]4C)ccnc2cc1C(N)=O` [Example 323, 4-{[(1R,2S,5S)-5-fluoro-6-methyl-4-oxo-3-azabicyclo[3.1.0]hex-2-yl]methoxy}-6-methoxyquinoline-7-carboxamide], the concentration for half-maximal inhibition (IC50) in assay [1] (setting [3]) stood at 0.2 nM; in assay [2] (setting [4]), 30 nM.
On the same counts, the results for `COc1cc2c(OC[C@H]3NC(=O)[C@@H]4[C@@H](F)[C@@H]43)ccnc2cc1C(N)=O` [Example 324, 4-{[(1S,2S,5R)-6-fluoro-4-oxo-3-azabicyclo[3.1.0]hex-2-yl]methoxy}-6-methoxyquinoline-7-carboxamide] are 0.6 nM and 277 nM.
